Assay results reported in patent publication US12396995B2, “Substituted 4-aminoisoindoline-1,3-dione compounds and second active agents for combined use” (Celgene Corporation, priority 2019, dated 2025).

How the values were obtained:
[1] = system: WSU-DLCL2 DLBCL xenograft tumors; assay: WSU-DLCL2 (DLBCL) xenograft model, Compound 1 alone and with tazemetostat; type: in vivo, female SCID mice
Method: Anti-tumor activity of Compound 1 alone and in combination with tazemetostat was studied in WSU-DLCL2 (DLBCL) xenograft model. Compound 1 (1 mg/kg) was administered once daily for 5 consecutive days followed by 2 days off (5 D on/2 D off) and tazemetostat (200 mg/kg) was administered twice daily (BID).
Methods: Xenograft study was conducted with female SCID mice bearing WSU-DLCL2 DLBCL xenograft tumors. Female SCID mice were inoculated subcutaneously with WSU-DLCL2 cells in the flank region above the right hind leg. Following inoculation of animals, the tumors were allowed to grow to approximately 200 mm^3 prior to randomization. On day 14 following tumor cell inoculation, the mice bearing WSU-DLCL2 tumors ranging between 150 and 250 mm^3 were pooled together and randomized into various treatment groups. Compound 1 was formulated in 0.5% Methyl Cellulose, 0.25% Tween 80 and 50 mM Citrate pH 3 in water. Tazemetostat was formulated in CMC-Tween. Compound 1 (1 mg/kg) was orally administered with three cycles of once daily for 5 consecutive days followed by 2 days off starting from day 14 after tumor cell inoculation. Tazemetostat 200 mg/kg) was orally administered twice day (BID) for three weeks. In combination group the animals received Compound 1 (1 mg/kg/5 D on/2 D off) and tazemetostat (200 mg/kg, BID) simultaneously for three weeks starting from day 14 after tumor cell inoculation. Tumors were measured twice a week using calipers and tumor volumes were calculated using the formula of W^2×L/2. Statistical analysis was performed using a one-way or 2-way analysis of variance (ANOVA). Synergy calculations were performed using fractional product method.

[2] = system: primary CLL cells (CD5+CD19+ tumor cells); assay: Ex vivo apoptosis of B-cell CLL patient cells, Compound 1 with ibrutinib (flow cytometry, Caspase 3); type: cell-based, human; conditions: 144 hrs
Method: After 144 hrs of treatment with both the agents, flow cytometric analysis was used to determine the number of tumor cells that were viable or apoptotic.
The tumor cell count was assessed by staining the patient PBMCs in each condition with tumor cell surface markers CD5 & CD19 along with Live/Dead fixable dye to exclude the dead cells and followed by intracellular staining for Caspase3 antibody to identify the apoptotic cells and was measured by flow cytometry (Attune NxT, Thermo Fisher). The live tumor cell count for each condition was calculated by normalizing to the precision count beads added to each sample.
For apoptosis analysis, the percentage of apoptosis combining both “early” (Caspase 3 positive and Live-Dead fixable dye negative) and “late” apoptosis (Caspase 3 and Live-Dead fixable dye positive) cell gates subtracting the baseline DMSO value was graphed using GraphPad Prism 8.0.0.0. The Ymax (maximal percentage of apoptosis achieved) values from apoptosis curves were calculated by performing a nonlinear regression curve fitting using log(agonist) vs. normalized response—Variable slope analysis and identifying the maximum value on GraphPad Prism 8.0.0 (Table 9).

[3] = system: primary CLL cells (CD5+CD19+ tumor cells); assay: Ex vivo apoptosis of B-cell CLL patient cells, Compound 1 with venetoclax (flow cytometry, Caspase 3); type: cell-based, human; conditions: 144 hrs
Method: CLL is characterized by accumulation of clonal CD5^+CD19^+ lymphocytes resistant to apoptosis. Venetoclax blocks the anti-apoptotic B-cell lymphoma-2 (Bcl-2) protein, leading to programmed cell death of CLL cells and is currently being tested in the clinic with different combinations for relapsed refractory patients. The effect of Compound 1 in combination with venetoclax on the proliferation and survival of CLL B cells was assessed utilizing an ex vivo model where primary CLL cells from patient-derived blood were stimulated to proliferate with 10% fetal bovine serum (FBS), 5 ng/mL recombinant human interleukine-4 (rh IL-4), 10 ng/mL recombinant human interleukine-10 (rh IL-10) and co-cultured with fibroblast expressing surface CD154 (CD40L) in a 96 well plate format.
Peripheral blood mononuclear cells (PBMCs) from CLL patients (Table 6) containing 52%-86% of CD5^+CD19^+ tumor cells were cultured at a density of 0.06-0.1×10^6 cells/well on a monolayer of CD154-expressing fibroblasts at a density of 0.09×10^6 cells/well in 96-well plates in RPMI 1640 medium supplemented with 10% FBS, 5 ng/mL rh IL-4 and 10 ng/mL rh IL-10 and were simultaneously treated with vehicle control (0.1% DMSO) or increasing concentrations of Compound 1 ranging from 0.0001 to 1 μM and venetoclax at concentrations ranging from 0.001 to 10 μM across all the different concentrations of Compound 1. After 144 hrs of treatment with both the agents, flow cytometric analysis was used to determine the number of tumor cells that were viable or apoptotic.
After 6 days of treatment, the tumor cell count was assessed by staining the patient PBMCs in each condition with tumor cell surface markers CD5 & CD19 along with Live/Dead fixable dye to exclude the dead cells and followed by intracellular staining for Caspase 3 antibody to identify the apoptotic cells and was measured by flow cytometry (Attune NxT, Thermo Fisher). The live tumor cell count for each condition was calculated by normalizing to the precision count beads added to each sample.
For apoptosis analysis, the percentage of apoptosis combining both “early” (Caspase 3 positive and Live-Dead fixable dye negative) and “late” apoptosis (Caspase 3 and Live-Dead fixable dye positive) cell gates subtracting the baseline DMSO value was graphed using GraphPad Prism 8.0.0.0. The Ymax (maximal percentage of apoptosis achieved) values from apoptosis curves were calculated by performing a nonlinear regression curve fitting using log(agonist) vs. normalized response—Variable slope analysis and identifying the maximum value on GraphPad Prism 8.0.0 (Table 7).

[4] = DMSO + Cpd1 DRC (no venetoclax)

With `O=C1CC[C@H](N2C(=O)c3cccc(NCc4ccc(CN5CC(N6CCOCC6)C5)cc4F)c3C2=O)C(=O)N1` [Compound 1, (S)-2-(2,6-dioxopiperidin-3-yl)-4-((2-fluoro-4-((3-morpholinoazetidin-1-yl)methyl)benzyl)amino)isoindoline-1,3-dione] the “combination antitumor activity (fractional product method)” value ([1]; Compound 1 1 mg/kg and tazemetostat 200 mg/kg) was “synergistic”, the “tumor volume reduction compared to vehicle control” value ([1]; Compound 1 1 mg/kg in combination with tazemetostat 200 mg/kg) was 93.7% and the “inhibition of tumor growth” value ([1]; single agent Compound 1 1 mg/kg oral, 5 D on/2 D off, three cycles) was −45.6%. The “Ymax of Pt 11 (%), maximal apoptosis” value ([2]; DMSO + Cpd1 DRC (no ibrutinib)) was 14.40%, the “Ymax of Pt 12 (%), maximal apoptosis” value ([2]; DMSO + Cpd1 DRC (no ibrutinib)) was 14.19% and the “Ymax of Pt 13 (%), maximal apoptosis” value ([2]; DMSO + Cpd1 DRC (no ibrutinib)) was 36.93%. The “Ymax of Pt 14 (%), maximal apoptosis” value ([2]; DMSO + Cpd1 DRC (no ibrutinib)) was 17.21%, the “Ymax of Pt 11 (%), maximal apoptosis” value ([2]; ibrutinib 0.001 uM + Cpd1 DRC) was 19.80% and the “Ymax of Pt 12 (%), maximal apoptosis” value ([2]; ibrutinib 0.001 uM + Cpd1 DRC) was 15.67%. The “Ymax of Pt 13 (%), maximal apoptosis” value ([2]; ibrutinib 0.001 uM + Cpd1 DRC) was 26.75%, the “Ymax of Pt 14 (%), maximal apoptosis” value ([2]; ibrutinib 0.001 uM + Cpd1 DRC) was 17.87% and the “Ymax of Pt 11 (%), maximal apoptosis” value ([2]; ibrutinib 0.01 uM + Cpd1 DRC) was 18.66%. The “Ymax of Pt 12 (%), maximal apoptosis” value ([2]; ibrutinib 0.01 uM + Cpd1 DRC) was 13.66%, the “Ymax of Pt 13 (%), maximal apoptosis” value ([2]; ibrutinib 0.01 uM + Cpd1 DRC) was 30.53% and the “Ymax of Pt 14 (%), maximal apoptosis” value ([2]; ibrutinib 0.01 uM + Cpd1 DRC) was 18.30%. For the same compound, the “Ymax of Pt 11 (%), maximal apoptosis” value ([2]; ibrutinib 0.1 uM + Cpd1 DRC) was 12.33%, the “Ymax of Pt 12 (%), maximal apoptosis” value ([2]; ibrutinib 0.1 uM + Cpd1 DRC) was 17.47% and the “Ymax of Pt 13 (%), maximal apoptosis” value ([2]; ibrutinib 0.1 uM + Cpd1 DRC) was 32.49%. For the same compound, the “Ymax of Pt 14 (%), maximal apoptosis” value ([2]; ibrutinib 0.1 uM + Cpd1 DRC) was 13.59%, the “Ymax of Pt 11 (%), maximal apoptosis” value ([2]; ibrutinib 1 uM + Cpd1 DRC) was 19.73% and the “Ymax of Pt 12 (%), maximal apoptosis” value ([2]; ibrutinib 1 uM + Cpd1 DRC) was 22.48%. The “Ymax of Pt 13 (%), maximal apoptosis” value ([2]; ibrutinib 1 uM + Cpd1 DRC) was 29.70%, the “Ymax of Pt 14 (%), maximal apoptosis” value ([2]; ibrutinib 1 uM + Cpd1 DRC) was 17.65% and the “Ymax of Pt 11 (%), maximal apoptosis” value ([2]; ibrutinib 10 uM + Cpd1 DRC) was 29.73%. For the same compound, the “Ymax of Pt 12 (%), maximal apoptosis” value ([2]; ibrutinib 10 uM + Cpd1 DRC) was 24.18%, the “Ymax of Pt 13 (%), maximal apoptosis” value ([2]; ibrutinib 10 uM + Cpd1 DRC) was 35.37% and the “Ymax of Pt 14 (%), maximal apoptosis” value ([2]; ibrutinib 10 uM + Cpd1 DRC) was 19.33%. The “Ymax of Pt 11 (%), maximal apoptosis” value [3, 4] was 12.42%, the “Ymax of Pt 12 (%), maximal apoptosis” value [3, 4] was 14.64% and the “Ymax of Pt 13 (%), maximal apoptosis” value [3, 4] was 27.00%. For the same compound, the “Ymax of Pt 14 (%), maximal apoptosis” value [3, 4] was 13.32%, the “Ymax of Pt 11 (%), maximal apoptosis” value ([3]; venetoclax 0.001 uM + Cpd1 DRC) was 17.79% and the “Ymax of Pt 12 (%), maximal apoptosis” value ([3]; venetoclax 0.001 uM + Cpd1 DRC) was 24.85%. For the same compound, the “Ymax of Pt 13 (%), maximal apoptosis” value ([3]; venetoclax 0.001 uM + Cpd1 DRC) was 33.09%, the “Ymax of Pt 14 (%), maximal apoptosis” value ([3]; venetoclax 0.001 uM + Cpd1 DRC) was 17.39% and the “Ymax of Pt 11 (%), maximal apoptosis” value ([3]; venetoclax 0.01 uM + Cpd1 DRC) was 38.49%. The “Ymax of Pt 12 (%), maximal apoptosis” value ([3]; venetoclax 0.01 uM + Cpd1 DRC) was 34.24%, the “Ymax of Pt 13 (%), maximal apoptosis” value ([3]; venetoclax 0.01 uM + Cpd1 DRC) was 49.03% and the “Ymax of Pt 14 (%), maximal apoptosis” value ([3]; venetoclax 0.01 uM + Cpd1 DRC) was 27.33%. The “Ymax of Pt 11 (%), maximal apoptosis” value ([3]; venetoclax 0.1 uM + Cpd1 DRC) was 58.37%, the “Ymax of Pt 12 (%), maximal apoptosis” value ([3]; venetoclax 0.1 uM + Cpd1 DRC) was 45.34% and the “Ymax of Pt 13 (%), maximal apoptosis” value ([3]; venetoclax 0.1 uM + Cpd1 DRC) was 52.16%. The “Ymax of Pt 14 (%), maximal apoptosis” value ([3]; venetoclax 0.1 uM + Cpd1 DRC) was 31.44%, the “Ymax of Pt 11 (%), maximal apoptosis” value ([3]; venetoclax 1 uM + Cpd1 DRC) was 66.55% and the “Ymax of Pt 12 (%), maximal apoptosis” value ([3]; venetoclax 1 uM + Cpd1 DRC) was 48.71%. For the same compound, the “Ymax of Pt 13 (%), maximal apoptosis” value ([3]; venetoclax 1 uM + Cpd1 DRC) was 55.23%, the “Ymax of Pt 14 (%), maximal apoptosis” value ([3]; venetoclax 1 uM + Cpd1 DRC) was 40.57% and the “Ymax of Pt 11 (%), maximal apoptosis” value ([3]; venetoclax 10 uM + Cpd1 DRC) was 72.34%. The “Ymax of Pt 12 (%), maximal apoptosis” value ([3]; venetoclax 10 uM + Cpd1 DRC) was 54.25%, the “Ymax of Pt 13 (%), maximal apoptosis” value ([3]; venetoclax 10 uM + Cpd1 DRC) was 60.52% and the “Ymax of Pt 14 (%), maximal apoptosis” value ([3]; venetoclax 10 uM + Cpd1 DRC) was 45.98%.
